Reference: ChEMBL document CHEMBL3734705, “Synthesis and in vitro cytotoxicity of novel C-12 substituted-14-deoxy-andrographolide derivatives as potent anti-cancer agents” (2015)

Columns and labels:
[1] = Cytotoxicity against human SKOV3 cells assessed as growth inhibition at 10 uM after 48 hrs by SRB assay; format: functional; settings: SK-OV-3, 48 h, read-out: GI
[2] = Cytotoxicity against human HL-60(TB) cells assessed as growth inhibition at 10 uM after 48 hrs by SRB assay; format: functional; settings: HL-60, 48 h, read-out: GI
CCRF-CEM = assay: Cytotoxicity against human CCRF-CEM cells assessed as growth level at 10 uM after 48 hrs by SRB assay; format: functional
MDA-MB-231 = assay: Cytotoxicity against human MDA-MB-231 cells assessed as growth inhibition at 10 uM after 48 hrs by SRB assay; format: functional; settings: MDA-MB-231, 48 h, read-out: GI
MDA-MB-468 [3] = assay: Cytotoxicity against human MDA-MB-468 cells assessed as growth inhibition at 10 uM after 48 hrs by SRB assay; format: functional; settings: MDA-MB-468, 48 h, read-out: GI
NCI-H522 = assay: Cytotoxicity against human NCI-H522 cells assessed as growth level at 10 uM after 48 hrs by SRB assay; format: functional
[4] = Cytotoxicity against human SW620 cells assessed as growth level at 10 uM after 48 hrs by SRB assay; format: functional, SW-620
[5] = Cytotoxicity against human UACC62 cells assessed as growth inhibition at 10 uM after 48 hrs by SRB assay; format: functional; settings: UACC-62, 48 h, read-out: GI
[6] = Cytotoxicity against human SNB75 cells assessed as growth inhibition at 10 uM after 48 hrs by SRB assay; format: functional; settings: SNB-75, 48 h, read-out: GI
HT-29 [7] = assay: Cytotoxicity against human HT-29 cells assessed as growth inhibition at 10 uM after 48 hrs by SRB assay; format: functional; settings: HT-29, 48 h, read-out: GI
[8] = Cytotoxicity against human RPMI8226 cells assessed as growth level at 10 uM after 48 hrs by SRB assay; format: functional, RPMI-8226
NCI-H322M = assay: Cytotoxicity against human NCI-H322M cells assessed as growth inhibition at 10 uM after 48 hrs by SRB assay; format: functional; settings: read-out: GI
[9] = Cytotoxicity against human IGROV1 cells assessed as growth level at 10 uM after 48 hrs by SRB assay; format: functional, IGROV-1
HT-29 [10] = assay: Cytotoxicity against human HT-29 cells assessed as growth level at 10 uM after 48 hrs by SRB assay; format: functional
[11] = Cytotoxicity against human Caki1 cells assessed as growth inhibition at 10 uM after 48 hrs by SRB assay; format: functional; settings: CAKI-1, 48 h, read-out: GI
[12] = Cytotoxicity against human LOXIMVI cells assessed as growth level at 10 uM after 48 hrs by SRB assay; format: functional, LOX IMVI
[13] = Cytotoxicity against human Hs578T cells assessed as growth level at 10 uM after 48 hrs by SRB assay; format: functional, Hs-578T
MDA-MB-468 [14] = assay: Cytotoxicity against human MDA-MB-468 cells assessed as growth level at 10 uM after 48 hrs by SRB assay; format: functional
[15] = Cytotoxicity against human COLO205 cells assessed as growth inhibition at 10 uM after 48 hrs by SRB assay; format: functional; settings: COLO 205, 48 h, read-out: GI
M14 = assay: Cytotoxicity against human M14 cells assessed as growth level at 10 uM after 48 hrs by SRB assay; format: functional
786-0 [16] = assay: Cytotoxicity against human 786-0 cells assessed as growth level at 10 uM after 48 hrs by SRB assay; format: functional
[17] = Cytotoxicity against human LOXIMVI cells assessed as growth inhibition at 10 uM after 48 hrs by SRB assay; format: functional; settings: LOX IMVI, read-out: GI
[18] = Cytotoxicity against human UACC257 cells assessed as growth level at 10 uM after 48 hrs by SRB assay; format: functional, UACC-257
[19] = Cytotoxicity against human SKOV3 cells assessed as growth level at 10 uM after 48 hrs by SRB assay; format: functional, SK-OV-3
[20] = Cytotoxicity against human OVCAR8 cells assessed as growth level at 10 uM after 48 hrs by SRB assay; format: functional, OVCAR-8
MCF7 = assay: Cytotoxicity against human MCF7 cells assessed as growth inhibition at 10 uM after 48 hrs by SRB assay; format: functional; settings: MCF7, 48 h, read-out: GI
[21] = Cytotoxicity against human SF539 cells assessed as growth level at 10 uM after 48 hrs by SRB assay; format: functional, SF-539
MDA-MB-435 [22] = assay: Cytotoxicity against human MDA-MB-435 cells assessed as growth level at 10 uM after 48 hrs by SRB assay; format: functional
[23] = Cytotoxicity against human SF295 cells assessed as growth inhibition at 10 uM after 48 hrs by SRB assay; format: functional; settings: SF-295, 48 h, read-out: GI
NCI-H226 = assay: Cytotoxicity against human NCI-H226 cells assessed as growth inhibition at 10 uM after 48 hrs by SRB assay; format: functional; settings: NCI-H226, 48 h, read-out: GI
[24] = Cytotoxicity against human TK10 cells assessed as growth level at 10 uM after 48 hrs by SRB assay; format: functional, TK-10
A549 = assay: Cytotoxicity against human A549 cells assessed as growth inhibition at 10 uM after 48 hrs by SRB assay; format: functional; settings: A549, 48 h, read-out: GI
786-0 [25] = assay: Cytotoxicity against human 786-0 cells assessed as growth inhibition at 10 uM after 48 hrs by SRB assay; format: functional; settings: 786-0, 48 h, read-out: GI
[26] = Cytotoxicity against human HOP62 cells assessed as growth inhibition at 10 uM after 48 hrs by SRB assay; format: functional; settings: HOP-62, 48 h, read-out: GI
[27] = Cytotoxicity against human PC3 cells assessed as growth inhibition at 10 uM after 48 hrs by SRB assay; format: functional; settings: PC-3, 48 h, read-out: GI
[28] = Cytotoxicity against human SF268 cells assessed as growth level at 10 uM after 48 hrs by SRB assay; format: functional, SF-268
[29] = Cytotoxicity against human HL-60(TB) cells assessed as growth level at 10 uM after 48 hrs by SRB assay; format: functional
A498 = assay: Cytotoxicity against human A498 cells assessed as growth level at 10 uM after 48 hrs by SRB assay; format: functional
[30] = Cytotoxicity against human HOP62 cells assessed as growth level at 10 uM after 48 hrs by SRB assay; format: functional, HOP-62
[31] = Cytotoxicity against human COLO205 cells assessed as growth level at 10 uM after 48 hrs by SRB assay; format: functional, COLO 205
MDA-MB-435 [32] = assay: Cytotoxicity against human MDA-MB-435 cells assessed as growth inhibition at 10 uM after 48 hrs by SRB assay; format: functional; settings: MDA-MB-435, 48 h, read-out: GI
EKVX = assay: Cytotoxicity against human EKVX cells assessed as growth level at 10 uM after 48 hrs by SRB assay; format: functional
[33] = Cytotoxicity against human TK10 cells assessed as growth inhibition at 10 uM after 48 hrs by SRB assay; format: functional; settings: TK-10, 48 h, read-out: GI
[34] = Cytotoxicity against human OVCAR4 cells assessed as growth inhibition at 10 uM after 48 hrs by SRB assay; format: functional; settings: OVCAR-4, 48 h, read-out: GI

## C=C1CC[C@@H]2[C@](C)(COC(C)=O)[C@H](OC(C)=O)CC[C@@]2(C)[C@@H]1CC(NCc1ccc(F)cc1)C1=CCOC1=O (mixture of isomers)
[1]
  inhibition of growth at 10 µM: 5.68%
[2]
  inhibition of growth at 10 µM: 9.52%
CCRF-CEM
  Activity: 9.18%
MDA-MB-231
  inhibition of growth at 10 µM: 39.1%
MDA-MB-468 [3]
  inhibition of growth at 10 µM: 72.5%
NCI-H522
  Activity: 20.93%
[4]
  Activity: 32.04%
[5]
  inhibition of growth at 10 µM: 67.8%
[6]
  inhibition of growth at 10 µM: 41.9%
HT-29 [7]
  inhibition of growth at 10 µM: 78.7%
[8]
  Activity: 1.27%
NCI-H322M
  inhibition of growth at 10 µM: 27.5%
[9]
  Activity: 48.35%
HT-29 [10]
  Activity: 21.32%
[11]
  inhibition of growth at 10 µM: 54%
[12]
  Activity: 9.33%
[13]
  Activity: 72.47%
MDA-MB-468 [14]
  Activity: 27.52%
[15]
  inhibition of growth at 10 µM: 57.9%
M14
  Activity: 37.3%
786-0 [16]
  Activity: 86.82%
[17]
  inhibition of growth at 10 µM: 90.7%
[18]
  Activity: 45.84%
[19]
  Activity: 94.32%
[20]
  Activity: 18.62%
MCF7
  inhibition of growth at 10 µM: 83.4%
[21]
  Activity: 64.45%
MDA-MB-435 [22]
  Activity: 32.73%
[23]
  inhibition of growth at 10 µM: 3.87%
NCI-H226
  inhibition of growth at 10 µM: 59.9%
[24]
  Activity: 66.64%
A549
  inhibition of growth at 10 µM: 42.1%
786-0 [25]
  inhibition of growth at 10 µM: 13.2%
[26]
  inhibition of growth at 10 µM: 21.2%
[27]
  inhibition of growth at 10 µM: 79.2%
[28]
  Activity: 62.59%
[29]
  Activity: -9.52%
A498
  Activity: 51.71%
[30]
  Activity: 78.73%
[31]
  Activity: 42.15%
MDA-MB-435 [32]
  inhibition of growth at 10 µM: 67.3%
EKVX
  Activity: 50.01%
[33]
  inhibition of growth at 10 µM: 33.4%
[34]
  inhibition of growth at 10 µM: 69.1%
